Source: ChEMBL document CHEMBL1201862, “PubChem BioAssay data set” (2004)
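48-hour exposure; five concentrations; linearly interpolated endpoints. GI50 = concentration required for 50% inhibition of growth.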 The source made the active and inactive calls. Cut-off read from the data, not from the text of the source: active = GI50 up to about 1.1 µM and inactive = higher.

Key:
Experiment in all cases: NCI anticancer screen, dose series, 48 h
[1] = test system: 786-0
[2] = test system: DU-145
[3] = test system: SW-620
[4] = test system: SF-295
[5] = test system: EKVX
[6] = test system: NCI-H226
[7] = test system: OVCAR-5
[8] = test system: M14
[9] = test system: MCF7
[10] = test system: U-251
[11] = test system: HCC 2998
[12] = test system: UO-31
[13] = test system: HOP-92
[14] = test system: A498
[15] = test system: OVCAR-3
[16] = test system: SK-MEL-28
[17] = test system: HOP-62
[18] = test system: SK-MEL-2
[19] = test system: LOX IMVI
[20] = test system: RXF 393
[21] = test system: NCI-H460
[22] = test system: OVCAR-4
[23] = test system: PC-3
[24] = test system: HL-60
[25] = test system: MDA-MB-435
[26] = test system: A549
[27] = test system: SN12C
[28] = test system: NCI/ADR-RES
[29] = test system: SK-MEL-5
[30] = test system: RPMI-8226
[31] = test system: NCI-H23
[32] = test system: TK-10
[33] = test system: CCRF-CEM
[34] = test system: BT-549
[35] = test system: MDA-N
[36] = test system: HCT-15
[37] = test system: KM12
[38] = test system: CAKI-1
[39] = test system: COLO 205
[40] = test system: ACHN
[41] = test system: SNB-19
[42] = test system: SNB-75
[43] = test system: UACC-257
[44] = test system: T47D
[45] = test system: UACC-62
[46] = test system: OVCAR-8
[47] = test system: SK-OV-3
[48] = test system: Malme-3M
[49] = test system: K562
[50] = test system: NCI-H522
[51] = test system: MOLT-4
[52] = test system: SF-268
[53] = test system: SF-539
[54] = test system: HT-29
[55] = test system: HCT-116
[56] = test system: IGROV-1
[57] = test system: SR
[58] = test system: MDA-MB-231

CCOC(=O)CCSS(=O)(=O)c1ccccc1
GI50 [1]: 26 µM (inactive) | GI50 [2]: > 100 µM (inactive) | GI50 [3]: 22.2 µM (inactive) | GI50 [4]: > 100 µM (inactive) | GI50 [5]: > 100 µM (inactive) | GI50 [6]: > 100 µM (inactive) | GI50 [7]: 92.9 µM (inactive) | GI50 [8]: 64.4 µM (inactive) | GI50 [9]: 28.6 µM (inactive) | GI50 [10]: > 100 µM (inactive) | GI50 [11]: > 100 µM (inactive) | GI50 [12]: > 10 µM (inactive) | GI50 [13]: 86.7 µM (inactive) | GI50 [14]: > 100 µM (inactive) | GI50 [15]: > 100 µM (inactive) | GI50 [16]: > 100 µM (inactive) | GI50 [17]: > 100 µM (inactive) | GI50 [18]: > 100 µM (inactive) | GI50 [19]: 23.3 µM (inactive) | GI50 [20]: > 100 µM (inactive) | GI50 [21]: > 100 µM (inactive) | GI50 [22]: > 100 µM (inactive) | GI50 [23]: > 100 µM (inactive) | GI50 [24]: 35.8 µM (inactive) | GI50 [25]: > 100 µM (inactive) | GI50 [26]: > 100 µM (inactive) | GI50 [27]: > 100 µM (inactive) | GI50 [28]: > 100 µM (inactive) | GI50 [29]: 62.2 µM (inactive) | GI50 [30]: 35 µM (inactive) | GI50 [31]: > 100 µM (inactive) | GI50 [32]: > 100 µM (inactive) | GI50 [33]: 28.4 µM (inactive) | GI50 [34]: > 100 µM (inactive) | GI50 [35]: > 100 µM (inactive) | GI50 [36]: 53.2 µM | GI50 [37]: > 100 µM (inactive) | GI50 [38]: > 100 µM (inactive) | GI50 [39]: 97.7 µM (inactive) | GI50 [40]: > 100 µM (inactive) | GI50 [41]: > 100 µM (inactive) | GI50 [42]: > 100 µM (inactive) | GI50 [43]: > 100 µM (inactive) | GI50 [44]: > 100 µM (inactive) | GI50 [45]: > 100 µM (inactive) | GI50 [46]: > 100 µM (inactive) | GI50 [47]: > 100 µM (inactive)

CCCSc1ccc2[nH]c(N3C(=O)/C(=C/c4ccco4)N=C3c3ccccc3)cc2c1
GI50 [48]: > 50 µM (inactive) | GI50 [1]: 23.7 µM (inactive) | GI50 [2]: > 50 µM (inactive) | GI50 [3]: 20.8 µM (inactive) | GI50 [49]: 15.6 µM (inactive) | GI50 [5]: 16.9 µM (inactive) | GI50 [50]: 13.2 µM (inactive) | GI50 [7]: > 50 µM (inactive) | GI50 [8]: 21.6 µM (inactive) | GI50 [9]: 15.8 µM (inactive) | GI50 [11]: 18.3 µM (inactive) | GI50 [12]: 38.3 µM (inactive) | GI50 [13]: > 50 µM (inactive) | GI50 [51]: 17.1 µM (inactive) | GI50 [14]: 15.4 µM (inactive) | GI50 [52]: 33 µM (inactive) | GI50 [53]: 9.42 µM (inactive) | GI50 [15]: 21.6 µM (inactive) | GI50 [16]: 33.7 µM (inactive) | GI50 [54]: 21.3 µM (inactive) | GI50 [17]: 40.7 µM (inactive) | GI50 [18]: 10.3 µM (inactive) | GI50 [19]: 27.8 µM (inactive) | GI50 [20]: 22.9 µM (inactive) | GI50 [21]: 18.3 µM (inactive) | GI50 [23]: 21.3 µM (inactive) | GI50 [24]: 11.9 µM (inactive) | GI50 [25]: 8.71 µM (inactive) | GI50 [26]: 25.7 µM (inactive) | GI50 [27]: 35 µM (inactive) | GI50 [55]: 21.8 µM (inactive) | GI50 [28]: 19.6 µM (inactive) | GI50 [29]: 9.89 µM (inactive) | GI50 [30]: 16.7 µM (inactive) | GI50 [31]: 34.8 µM (inactive) | GI50 [56]: 40.1 µM (inactive) | GI50 [57]: 7.26 µM (inactive) | GI50 [33]: 19.3 µM (inactive) | GI50 [34]: 32.7 µM (inactive) | GI50 [35]: 6 µM (inactive) | GI50 [36]: 19.8 µM | GI50 [37]: 17.7 µM (inactive) | GI50 [38]: 34.7 µM (inactive) | GI50 [39]: 10.4 µM (inactive) | GI50 [40]: 38.8 µM (inactive) | GI50 [41]: > 50 µM (inactive) | GI50 [42]: 44 µM (inactive) | GI50 [43]: 18.2 µM (inactive) | GI50 [44]: 27.6 µM (inactive) | GI50 [45]: 23.3 µM (inactive) | GI50 [46]: > 50 µM (inactive)

COC(=O)C(N)CCCC(N)C(=O)NC(C)C(=O)NC(CCC(=O)NCCCNc1ccc([N+](=O)[O-])c2[nH]c3ccccc3c(=O)c12)C(N)=O (stereo not given)
GI50 [1]: 4.53 µM (inactive) | GI50 [2]: 6.56 µM (inactive) | GI50 [3]: 3.7 µM (inactive) | GI50 [4]: 6.24 µM (inactive) | GI50 [49]: 6.67 µM (inactive) | GI50 [5]: 7.78 µM (inactive) | GI50 [6]: 9.55 µM (inactive) | GI50 [7]: 10.4 µM (inactive) | GI50 [8]: 5.4 µM (inactive) | GI50 [10]: 4.66 µM (inactive) | GI50 [11]: 6.82 µM (inactive) | GI50 [12]: 3.49 µM (inactive) | GI50 [13]: 11.4 µM (inactive) | GI50 [14]: 15.1 µM (inactive) | GI50 [52]: 3.25 µM (inactive) | GI50 [15]: 10.8 µM (inactive) | GI50 [16]: 10.2 µM (inactive) | GI50 [17]: 7.26 µM (inactive) | GI50 [18]: 16.8 µM (inactive) | GI50 [19]: 3.24 µM (inactive) | GI50 [20]: 9.55 µM (inactive) | GI50 [21]: 3.59 µM (inactive) | GI50 [22]: 6.15 µM (inactive) | GI50 [23]: 5.56 µM (inactive) | GI50 [25]: 5.01 µM (inactive) | GI50 [26]: 3.13 µM (inactive) | GI50 [55]: 2.33 µM (inactive) | GI50 [28]: 6.07 µM (inactive) | GI50 [29]: 11.7 µM (inactive) | GI50 [30]: 3.19 µM (inactive) | GI50 [31]: 5.68 µM (inactive) | GI50 [58]: 10.1 µM (inactive) | GI50 [32]: 10 µM (inactive) | GI50 [33]: 3.9 µM (inactive) | GI50 [34]: 12.7 µM (inactive) | GI50 [36]: 3.67 µM | GI50 [37]: 4.91 µM (inactive) | GI50 [38]: 6.64 µM (inactive) | GI50 [39]: 3.85 µM (inactive) | GI50 [40]: 3.68 µM (inactive) | GI50 [41]: 4 µM (inactive) | GI50 [42]: 9.89 µM (inactive) | GI50 [43]: 8.79 µM (inactive) | GI50 [44]: 11.6 µM (inactive) | GI50 [45]: 2.42 µM (inactive) | GI50 [46]: 3.37 µM (inactive) | GI50 [47]: 11.4 µM (inactive)
